Laboratory results reported in US20040081972A1, “Novel physiologically active peptide and use thereof” (priority 2000, published 2004).
[ ]: non-standard residue; d: D form. LYB = not defined here

What was measured:
Format in all cases: cell-based
[1] = tested on: skull (cranial bone) of an apoaequorin transgenic mouse; assay: Intracellular calcium (aequorin luminescence) in skull (cranial bone) pieces of apoaequorin transgenic mouse; conditions: final concentration 10 μmol/l
Protocol: (§1) In order to evaluate physiological activities of the peptides prepared in Example 1, the prepared peptides were allowed to act upon organs excised from the living body, and changes in the concentration of an intracellular signal transduction substance in cells constituting the organs were measured.
(§2) In order to measure changes in the concentration of an intracellular signal transduction substance in cells constituting the organs, a transgenic mouse prepared by integrated an apoaequorin gene expression vector into a chromosome was used. Specifically, a female mouse derived from the transgenic mouse disclosed in Reference Example 4 as an individual number 98075-04-6 was used in the test. The transgenic mouse was prepared and reared as an SPF animal in a clean room, and was not contaminated with pathogens including mouse hepatitis virus, Sendai virus, mycoplasma and Tyzzer bacterium.
(§3) Aequorin is a bioluminescent protein complex which is present in the umbrella region of luminescent Aequorea victoria. Aequorin is constituted from its protein moiety apoaequorin, its luminescence substrate coelent razin and molecular oxygen, and emits light by its binding with calcium ion. Since expression of the apoaequorin protein has been confirmed in at least thymus, spleen, abdominal muscle, diaphragm, kidney, crystalline lens, pancreas, fat tissue, liver, skull, blood vessel, ovary, womb and adrenal gland of the transgenic mouse used in the test, it was able to monitor changes in the intracellular calcium ion concentration in these organs with a high sensitivity.
(§4) Organs were prepared from offsprings borne from the female of individual number 98075-04-6 to examine the activities of the peptides produced in Example 1. After the offsprings were killed, the thymus, spleen, abdominal muscle, diaphragm, kidney, crystalline lens, pancreas, fat tissue, liver, skull, blood vessel, ovary, womb and adrenal gland were excised. Each of the excised organs was cut into small cubes of about 1 to 2 mm square in PBS containing 10 units/ml of heparin sodium and thoroughly washed by changing the solution. Next, three pieces of each of the organ samples thus prepared were put into a 5 ml capacity tube (Rohren-Tubes; No. 55.476, manufactured by Sarstedt) which had been charged with RPMI 1640 medium containing 200 μl of 10 μmol/l coelenterazine (manufactured by Molecular Probes), and cultured at 37° C. for 5 hours. Five hours after, various substances shown below dissolved in RPMI 1640 medium were added at 200 μl, and the luminescence was measured just after the addition at 1 second intervals using a luminometer AutoLumat LB953 (manufactured by BERTHOLD).

[2] = tested on: spleen of an apoaequorin transgenic mouse; assay: Intracellular calcium (aequorin luminescence) in spleen pieces of apoaequorin transgenic mouse; conditions: for physiological activity (the activity found in Peptide 1 or Peptide 3): purified samples, method of Example 3
Protocol: as §1, §2, §3, §4
Organs were prepared from offsprings borne from the female of individual number 98075-04-6 to examine the activities of the peptides produced in Example 1. After the offsprings were killed, the spleen was excised. The excised spleen was cut into small cubes of about 1 to 2 mm square in PBS containing 10 units/ml of heparin sodium and thoroughly washed by changing the solution. Next, three pieces of the prepared spleen sample were put into a 5 ml capacity tube (Rohren-Tubes; No. 55.476, manufactured by Sarstedt) which had been charged with RPMI 1640 medium containing 200 μl of 10 μmol/l coelenterazine (manufactured by Molecular Probes), and cultured at 37° C. for 5 hours. Five hours after, various substances shown below dissolved in RPMI 1640 medium were added at 200 μl, and the luminescence was measured just after the addition at 1 second intervals using a luminometer AutoLumat LB953 (manufactured by BERTHOLD).
RPMI 1640, a peptide prepared in Example 1 (final concentration: 10 nmol/l), a peptide prepared in Example 1 (final concentration: 100 nmol/l), a peptide prepared in Example 1 (final concentration: 1 μmol/l), a peptide prepared in Example 1 (final concentration; 10 μmol/l), ATP (final concentration: 100 μmol/l), A23187 (final concentration: 1 μmol/l) and Triton X-100 (final concentration: 2%) were added in order. […]

[3] = tested on: thymus, abdominal muscle, diaphragm, kidney, crystalline lens, pancreas, fat tissue, liver, blood vessel, ovary, womb and adrenal gland; assay: Intracellular calcium (aequorin luminescence) in organs other than the spleen and skull of apoaequorin transgenic mouse
Protocol: In order to measure changes in the concentration of an intracellular signal transduction substance in cells constituting the organs, a transgenic mouse prepared by integrated an apoaequorin gene expression vector into a chromosome was used. […] The transgenic mouse was prepared and reared as an SPF animal in a clean room, and was not contaminated with pathogens including mouse hepatitis virus, Sendai virus, mycoplasma and Tyzzer bacterium.

[4] = tested on: spleen of an apoaequorin transgenic mouse; assay: Intracellular calcium (aequorin luminescence) in spleen pieces of apoaequorin transgenic mouse
[5] = tested on: thymus of an apoaequorin transgenic mouse; assay: Intracellular calcium (aequorin luminescence) in thymus pieces of apoaequorin transgenic mouse
Protocol: as §1
as §2, with “The transgenic mouse was prepared and reared as an SPF animal in a clean room, and was not contaminated with pathogens including mouse hepatitis virus, Sendai virus, mycoplasma and Tyzzer bacterium.” left out
Aequorin is a bioluminescent protein complex which is present in the umbrella region of luminescent Aequorea victoria. Aequorin is constituted from its protein moiety apoaequorin, its luminescence substrate coelent razin and molecular oxygen, and emits light by its binding with calcium ion. […]
Organs were prepared from offsprings borne from the female of individual number 98075-04-6 to examine the activities of the peptides produced in Example 1. […] Five hours after, various substances shown below dissolved in RPMI 1640 medium were added at 200 μl, and the luminescence was measured just after the addition at 1 second intervals using a luminometer AutoLumat LB953 (manufactured by BERTHOLD).

[6] = tested on: blood vessel of an apoaequorin transgenic mouse; assay: Intracellular calcium (aequorin luminescence) in blood vessel pieces of apoaequorin transgenic mouse
Protocol: as §1, §2, §3, §4

[7] = 10 nmol/l, 100 nmol/l, 1 μmol/l, 10 μmol/l added in order

## H-Leu-Ser-Pro-His-Thr-Lys-Leu-Ser-Tyr-Gly-Glu-Gly-Val-Phe-Leu-Arg-Leu-Ser-Lys-Ser-Glu-Gly-Leu-Met-Glu-Ile-Lys-Leu-Met-Glu-Asp-Leu-Met-Val-Phe-Pro-Lys-Thr-Gly-NH2 (H-LSPHTKLSYGEGVFLRLSKSEGLMEIKLMEDLMVFPKTG-NH2) [Peptide 1S]
[1]
  luminescence (intracellular calcium increase): not detected
[2]; final concentration 10 μmol/l
  luminescence (intracellular calcium increase): not detected

## CNc1ccc2oc(C[C@H]3O[C@@]4(CC[C@H]3C)O[C@H]([C@H](C)C(=O)c3ccc[nH]3)[C@H](C)C[C@H]4C)nc2c1C(=O)O [Peptide A23187, A23187]
[3]; final concentration 1 μmol/l
  luminescence (intracellular calcium increase): luminescence was observed

## H-Met-Leu-Glu-Lys-Leu-Gly-Val-Pro-Lys-Thr-His-Leu-Glu-Leu-Lys-Lys-Leu-Ile-Gly-Glu-Val-Ser-Ser-Gly-Ser-Gly-Glu-Thr-Phe-Ser-Tyr-Pro-Asp-Phe-Leu-Arg-Met-Met-Leu-NH2 (H-MLEKLGVPKTHLELKKLIGEVSSGSGETFSYPDFLRMML-NH2) [Peptide 1]
[1]
  luminescence (intracellular calcium increase): Strong luminescence
[4]; final concentration 6 μmol/l
  luminescence (intracellular calcium increase): Strong luminescence
[2]; [7]
  concentration at which luminescence accompanied by the increased intracellular calcium was observed: 10 µmol/L
[2]; final concentration 10 μmol/l
  luminescence (intracellular calcium increase): Strong luminescence

## Triton X-100
[3]; final concentration 2%
  luminescence: luminescence was observed

## CNC[C@H](O)c1cccc(O)c1 [phenylephrine]
[5]; final concentration 20 μmol/l
  luminescence (intracellular calcium increase): Strong luminescence
[6]; final concentration 20 μmol/l
  luminescence (intracellular calcium increase): Strong luminescence

## CC[C@H](C)[C@H](NC(=O)[C@H](CC(=O)O)NC(=O)[C@H](CC(C)C)NC(=O)[C@H](Cc1c[nH]cn1)NC(=O)[C@@H]1CSSC[C@H](N)C(=O)N[C@@H](CO)C(=O)N[C@H]2CSSC[C@H](NC(=O)[C@H](CCC(=O)O)NC(=O)[C@H](CCCCN)NC(=O)[C@H](CC(=O)O)NC(=O)[C@H](CCSC)NC(=O)[C@H](CC(C)C)NC(=O)[C@H](CO)NC(=O)[C@H](CO)NC2=O)C(=O)N[C@@H](C(C)C)C(=O)N[C@@H](Cc2ccc(O)cc2)C(=O)N[C@@H](Cc2ccccc2)C(=O)N1)C(=O)N[C@H](C(=O)N[C@@H](Cc1c[nH]c2ccccc12)C(=O)O)[C@@H](C)CC [endothelin]
[6]; final concentration 10 nmol/l
  luminescence (intracellular calcium increase): Strong luminescence

## H-Met-Leu-Glu-Lys-Leu-Gly-Val-Pro-Lys-Thr-His-Leu-Glu-Leu-Lys-Arg-Leu-Ile-Arg-Glu-Val-Ser-Ser-Gly-Ser-Glu-Glu-Thr-Phe-Ser-Tyr-Ser-Asp-Phe-Leu-Arg-Met-Met-Leu-NH2 (H-MLEKLGVPKTHLELKRLIREVSSGSEETFSYSDFLRMML-NH2) [Peptide 2]
[1]
  luminescence (intracellular calcium increase): Strong luminescence
[2]; [7]
  final concentration from which concentration-dependent luminescence was observed: 0.1 µmol/L
[2]; final concentration 10 μmol/l
  luminescence (intracellular calcium increase): Strong luminescence

## H-Leu-Ser-Pro-His-Thr-Lys-Leu-Ser-Tyr-Arg-Glu-Glu-Val-Phe-Leu-Arg-Leu-Ser-Lys-Ser-Glu-Gly-Leu-Met-Glu-Ile-LYB-Leu-Met-Glu-Asp-Leu-Met-val-Phe-Ser-Arg-Thr-Gly-NH2 (H-LSPHTKLSYREEVFLRLSKSEGLMEI[LYB]LMEDLM[dV]FSRTG-NH2; reading uncertain) [Peptide 2S]
[1]
  luminescence (intracellular calcium increase): not detected
[2]; final concentration 10 μmol/l
  luminescence (intracellular calcium increase): not detected

## H-Met-Met-Glu-Lys-Leu-Gly-Val-Pro-Lys-Thr-His-Leu-Glu-Met-Lys-Lys-Met-Ile-Ser-Glu-Val-Thr-Gly-Gly-Val-Ser-Asp-Thr-Ile-Ser-Tyr-Arg-Asp-Phe-Val-Asn-Met-Met-Leu-NH2 (H-MMEKLGVPKTHLEMKKMISEVTGGVSDTISYRDFVNMML-NH2) [Peptide 3]
[1]
  luminescence (intracellular calcium increase): Strong luminescence
[4]; final concentration 8 μmol/l
  luminescence (intracellular calcium increase): Strong luminescence
[2]; [7]
  final concentration from which concentration-dependent luminescence was observed: 1 µmol/L
[2]; final concentration 10 μmol/l
  luminescence (intracellular calcium increase): Strong luminescence

## Nc1ncnc2c1ncn2[C@@H]1O[C@H](COP(=O)(O)OP(=O)(O)OP(=O)(O)O)[C@@H](O)[C@H]1O [ATP]
[2]; final concentration 100 μmol/l
  luminescence (intracellular calcium increase): Strong luminescence
[5]; final concentration 100 μmol/l
  luminescence (intracellular calcium increase): Strong luminescence
[3]; final concentration 100 μmol/l
  luminescence (intracellular calcium increase): luminescence was observed
[6]; final concentration 100 μmol/l
  luminescence (intracellular calcium increase): Strong luminescence

## C[N+](C)(C)CCOC(N)=O [carbachol]
[6]; final concentration 10 μmol/l
  luminescence (intracellular calcium increase): Strong luminescenc

## H-Val-Thr-Pro-His-Thr-Lys-Leu-Val-Tyr-Ser-Glu-Ser-Val-Ile-Met-Asn-Met-Ser-Lys-Gly-Glu-Gly-Leu-Met-Glu-Ile-Lys-Leu-Met-Asp-Asp-Met-Met-Thr-Phe-Arg-Lys-val-Gly-NH2 (H-VTPHTKLVYSESVIMNMSKGEGLMEIKLMDDMMTFRK[dV]G-NH2; SMILES CC[C@H](C)[C@H](NC(=O)[C@H](CCC(=O)O)NC(=O)[C@H](CCSC)NC(=O)[C@H](CC(C)C)NC(=O)CNC(=O)[C@H](CCC(=O)O)NC(=O)CNC(=O)[C@H](CCCCN)NC(=O)[C@H](CO)NC(=O)[C@H](CCSC)NC(=O)[C@H](CC(N)=O)NC(=O)[C@H](CCSC)NC(=O)[C@@H](NC(=O)[C@@H](NC(=O)[C@H](CO)NC(=O)[C@H](CCC(=O)O)NC(=O)[C@H](CO)NC(=O)[C@H](Cc1ccc(O)cc1)NC(=O)[C@@H](NC(=O)[C@H](CC(C)C)NC(=O)[C@H](CCCCN)NC(=O)[C@@H](NC(=O)[C@H](Cc1c[nH]cn1)NC(=O)[C@@H]1CCCN1C(=O)[C@@H](NC(=O)[C@@H](N)C(C)C)[C@@H](C)O)[C@@H](C)O)C(C)C)C(C)C)[C@@H](C)CC)C(=O)N[C@@H](CCCCN)C(=O)N[C@@H](CC(C)C)C(=O)N[C@@H](CCSC)C(=O)N[C@@H](CC(=O)O)C(=O)N[C@@H](CC(=O)O)C(=O)N[C@@H](CCSC)C(=O)N[C@@H](CCSC)C(=O)N[C@H](C(=O)N[C@@H](Cc1ccccc1)C(=O)N[C@@H](CCCNC(=N)N)C(=O)N[C@@H](CCCCN)C(=O)N[C@@H](C(=O)NCC(N)=O)C(C)C)[C@@H](C)O) [Peptide 3S]
[1]
  luminescence (intracellular calcium increase): not detected
[2]; final concentration 10 μmol/l
  luminescence (intracellular calcium increase): not detected

## H-Leu-Ile-Arg-Glu-Val-Ser-Ser-Gly-Ser-Glu-Glu-Thr-Phe-Ser-Tyr-Ser-Asp-Phe-Leu-Arg-Met-Met-Leu-NH2 (H-LIREVSSGSEETFSYSDFLRMML-NH2) [Peptide 2 short]
[2]; [7]
  final concentration from which concentration-dependent luminescence was observed: 1 µmol/L
[2]; fraction of Peptide 2 activity
  activity maintained relative to the activity of Peptide 2: 1/10

B1: AIF-1: precursor protein comprising the amino acid sequence represented by SEQ ID NO:1; purified after FXa cleavage of MBP fusion (protein, listed as Homo sapiens)
chain: MSQTRDLQGGKAFGLLKAQQEERLDEINKQFLDDPKYSSDEDLPSKLEGFKEKYMEFDLNGNGDIDIMSLKRMLEKLGVPKTHLELKKLIGEVSSGSGETFSYPDFLRMMLGKRSAILKMILMYEEKAREKEKPTGPPAKKAISELP
[2]
  physiological activity (the activity found in Peptide 1 or Peptide 3): not observed

B2: AIF-2: precursor protein comprising the amino acid sequence represented by SEQ ID NO:5; purified after FXa cleavage of MBP fusion (protein, listed as Homo sapiens)
chain: MSGELSNRFQGGKAFGLLKARQERRLAEINRELLCDQKYSDEENLPEKLTAFKEKYMEFDLNNEGEIDLMSLKRMMEKLGVPKTHLEMKKMISEVTGGVSDTISYRDFVNMMLGKRSAVLKLVMMFEGKANESSPKPVGPPPERDIASLP
[2]
  physiological activity (the activity found in Peptide 1 or Peptide 3): not observed
